What was measured:
[1] = Stability of lisuride dissolved in water (HPL chromatogram); conditions: room temperature, FIG. 3A
[2] = system: 5-HT2B receptors of pulmonary arteries in pigs; experiment: 5-HT-induced, 5-HT2B-mediated relaxing of PGF2α-pre-contracted pulmonary arteries in pigs (functional receptor assay); format: cell-based; conditions: under physiological conditions; not antagonized by maximum 5-HT concentrations
Excerpt: (§1) In this case, the pA2 value reflects the negatively decade logarithm of the concentration of an antagonist, which makes it necessary to double the agonist concentration in order to restore the initial effect of the agonist without antagonists.
The vascular reaction in the preparations of pulmonary arteries in pigs, which are pre-contracted by means of PGF2α, were used as an assay for the specific interaction with 5-HT2B receptors (see FIG. 1A). […] Ketanserin is a standard-5HT2A antagonist, SB204741 is a standard-5-HT2B antagonist.

[3] = target: T1, 5-HT2A receptors of coronary arteries in pigs (Sus scrofa, UniProt P50129); experiment: Inhibition of 5-HT2A-mediated, 5-HT-induced contraction of coronary arteries in pigs; format: cell-based; conditions: n in own column
T1 construct: 5-HT2A-mediated contraction of the coronary arteries in pigs; from tissue; host or cells: isolated pig coronary artery
T1 sequence (P50129 whole entry): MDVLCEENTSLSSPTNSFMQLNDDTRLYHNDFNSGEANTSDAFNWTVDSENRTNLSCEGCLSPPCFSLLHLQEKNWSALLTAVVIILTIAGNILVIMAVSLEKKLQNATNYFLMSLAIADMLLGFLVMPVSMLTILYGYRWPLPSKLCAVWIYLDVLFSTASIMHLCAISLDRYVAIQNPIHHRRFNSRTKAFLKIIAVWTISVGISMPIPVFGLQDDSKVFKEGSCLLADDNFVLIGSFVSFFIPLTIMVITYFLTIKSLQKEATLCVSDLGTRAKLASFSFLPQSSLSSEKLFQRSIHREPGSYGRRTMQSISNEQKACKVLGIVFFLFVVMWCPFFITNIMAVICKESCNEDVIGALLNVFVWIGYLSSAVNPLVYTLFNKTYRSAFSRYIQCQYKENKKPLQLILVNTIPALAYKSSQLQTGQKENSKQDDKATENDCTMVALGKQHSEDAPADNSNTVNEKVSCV
Excerpt: as §1

[4] = system: 5-HT-induced effects in rats; conditions: cited from earlier work
[5] = system: Human smooth muscle cells; experiment: 5-HT-stimulated cell growth, 3H-thymidine uptake; format: cell-based; conditions: 10 μmol/l test substance, 5-HT 10-8 mol/l, 24 hours; FIG. 2
Method: To determine the cell growth, 3H-thymidine (Amersham) was then added to the cell cultures, and the latter were incubated for 24 hours. After the adhesion of the cells, the culture medium was replaced by a standard medium with 0.2% fetal calf serum to stop growth and incubated again for 48 hours.
In order to test antiproliferative actions of the described substances, the cell cultures were then pre-incubated first at a concentration of 10 μmol/l of the test substances. […] To measure the growth of cells, 3H-thymidine (Amersham) was then added to the cultures, and the latter was incubated for 24 hours. Then, 2 incubations were carried out in iced common salt solution with a phosphate buffer, and then a 30-minute incubation was carried out in iced 10% trichloroacetic acid at 4° C. The cells were then incubated in 0.1 molar NaOH solution (0.5 ml/incubation vessel). After neutralization with acetic acid, the 3H-thymidine uptake was measured with liquid scintillation (as 3× determination).

[6] = Antioxidative action / radical trap (binding of oxygen radicals)
Excerpt: Because of the small amounts of substances contained in the samples and the short life of the reaction products, it was not possible to isolate them for structural clarification.

[7] = system: monocrotaline-induced pulmonary high pressure in rats; experiment: Monocrotaline-induced pulmonary high pressure in rats; format: in vivo, male Sprague-Dawley rats; conditions: MCT 60 mg/kg s.c.; treatment bid via stomach tube days 15-28; measured day 28; lisuride 0.25 mg/kg, terguride 2.5 mg/kg; average ± SEM, N = 6
Excerpt: Monocrotaline (MCT) is a toxin from plants of the Crotalaria species, which damages the endothelial cells of the pulmonary arteries after a single injection in rats, with the following hypertrophy of the smooth vascular musculature and persistent severe pulmonary high pressure. The MCT-induced pulmonary hypertension in rats is a well-established and validated model of human pulmonary hypertension, and all now-approved therapeutic agents have shown an action in this model, at least when they were used before the toxically-induced tissue remodeling.
MCT (60 mg/kg) was administered subcutaneously as a single injection in male Sprague-Dawley rats, and an identical volume of isotonic common salt solution was injected into the control animals. […]
On day 28 of the experiment, two hours after the last administration of substance, the animals were narcotized with use of pentobarbital. […] The mean arterial system pressure and the systolic pressure were measured in the right heart ventricle. […]
The s.c. injection of MCT, as described above, results in severe damage of the pulmonary vascular endothelium as well as excessive production of connective tissue and development of a pulmonary hypertension. Accumulation of collagen, measured as hydroxyproline content of the pulmonary tissue and increase of the right-ventricular systolic pressure reflect the described structural and functional changes.

In the case of `CCN(CC)C(=O)N[C@H]1C=C2c3cccc4[nH]cc(c34)C[C@H]2N(C)C1` [Lisuride, 3-(9,10-didehydro-6-methylergoline-8alpha-yl)-1,1-diethylurea], the “stability dissolved in water” value [1] is reported as “quickly broken down” and the “type of antagonism of the 5-HT2B receptor” value [2] is reported as “irreversible antagonist”.
With `CCNC(=O)NC1C=C2c3cccc4[nH]cc(c34)CC2N(C)C1` (stereo not drawn) [N″-Monodesethyllisuride] the “5-HT2A pA2” value [3] was 8.29 ± 0.03.
In the case of `CCN(CC)C(=O)N[C@H]1C[C@@H]2c3cccc4[nH]cc(c34)C[C@H]2N(C)C1` [Terguride, trans-dihydrolisuride], the “5-HT-induced weight increase of the heart and liver” value ([4]; rats [Hauso 2007]) is given as “prevented”, the “behavior abnormalities and fibrotic skin changes at the injection sites of 5-HT” value ([4]; rats [Hauso 2007]) is given as “suppressed” and the “development of pulmonary valve failure” value ([4]; rats, daily 5-HT over 4 months [Hauso 2007]) is given as “not detectable”. The “cell proliferation (3H-thymidine uptake)” value [5] was “Reduction of cell proliferation”, the “free oxygen radicals taken up by an individual molecule” value [6] was “up to 4” and the “Systolic Right-Ventricular Pressure (RVPsys)” value [7] was 39 ± 3 mmHG.

Reference: patent US20140058108A1 (SINOXA PHARMA UG, priority 2010, published 2014)
